Results reported in patent US20060116390A1, “Hepatitis c virus inhibitors” (priority 2003, published 2006).
Read-outs that look alike come from different tables or passages of the source.

Test system: HCV proteins in Rep5.1 cells (replicon cell line)
Assay: Inhibitory activity of HCV: cell-based ELISA in replicon cell line Rep5.1 (decrease of HCV proteins)
Parameters: species or system hepatitis C virus
Settings: Rep5.1 cells, 72 hours with drug
In short: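 HCV protein loss was quantified by ELISA on methanol/acetone-fixed cells 72 h after drug addition, probing with selected HCV-positive human plasma, and IC50 was defined as 50% reduction relative to untreated wells. The cells were Rep5.1 replicon cells cultured in DMEM-10 with 500 μg/ml G418, plated at 5000 per well and dosed with serial dilutions after 4 h attachment.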

[1] = Hepatitis C virus, 72 h, concentration at which 50% of HCV proteins was decreased, Table 2, read-out: IC50
[2] = Hepatitis C virus, 72 h, decrease of HCV proteins measured by HCV antibody, Table 1, read-out: Level (IC50 values classified)

| Structure (SMILES) | IC50 [1] | IC50 [2] | IC50 (concentration at which 50% of HCV proteins was decreased, Table 2, read-out: IC50) |
| --- | --- | --- | --- |
| CC1=C(C(=O)OCCc2ccc(F)cc2)CNC(=S)N1 [Compound 259, 6-methyl-2-thioxo-1,2,3,4-tetrahydro-pyrimidine-5-carboxylic acid 2-(4-fluoro-phenyl)-ethyl ester] | < 400 nM | < 1000 nM | – |
| COC(=O)C1=C(C(=O)OCc2ccccc2)CNC(=S)N1 [Compound 196, 2-thioxo-1,2,3,6-tetrahydro-pyrimidine-4,5-dicarboxylic acid 5-benzyl ester 4-methyl ester] | 43000 nM | > 20000 nM | – |
| COc1ccc(CCCOC(=O)C2=C(C)NC(=S)NC2)cc1OC [Compound 36, 6-methyl-2-thioxo-1,2,3,4-tetrahydro-pyrimidine-5-carboxylic acid 3-(3,4-dimethoxy-phenyl)-propyl ester] | 84000 nM | > 20000 nM | – |
| CCOC(=O)CCCCCOC(=O)C1=C(C)NC(=S)NC1 [Compound 197, 6-methyl-2-thioxo-1,2,3,4-tetrahydro-pyrimidine-5-carboxylic acid 5-ethoxycarbonyl-pentyl ester] | > 100000 nM | > 20000 nM | – |
| CC1=C(C(=O)OCCCc2ccc(F)cc2)CNC(=S)N1 [Compound 103, 6-methyl-2-thioxo-1,2,3,4-tetrahydro-pyrimidine-5-carboxylic acid 3-(4-fluoro-phenyl)-propyl ester] | < 400 nM | < 1000 nM | – |
| CC1=C(C(=O)OCCCc2cccc3ccccc23)C(CO)NC(=S)N1 (stereo not drawn) [24″, 4-hydroxymethyl-6-methyl-2-thioxo-1,2,3,4-tetrahydro-pyrimidine-5-carboxylic acid 3-naphthalen-1-yl-propyl ester] | 800 nM | < 1000 nM | – |
| CCCCCCC(C)OC(=O)C1=C(C)NC(=S)NC1 (stereo not drawn) [Compound 35, 6-methyl-2-thioxo-1,2,3,4-tetrahydro-pyrimidine-5-carboxylic acid 1-methyl-heptyl ester] | < 500 nM | < 1000 nM | – |
| CC1=C(C(=O)OCCc2ccsc2)C2(CCCC2)NC(=S)N1 [29′, 9-methyl-7-thioxo-6,8-diaza-spiro[4.5]dec-9-ene-10-carboxylic acid 2-thiophen-3-yl-ethyl ester] | 12000 nM | 10000 to 20000 nM | – |
| CC1=C(C(=O)OCc2ccccc2C)CNC(=S)N1 [Compound 231, 6-methyl-2-thioxo-1,2,3,4-tetrahydro-pyrimidine-5-carboxylic acid 2-methyl-benzyl ester] | 700 nM | < 1000 nM | – |
| CC1=C(C(=O)OC(C)(C)c2ccccc2)CNC(=S)N1 [Compound 27, 6-methyl-2-thioxo-1,2,3,4-tetrahydro-pyrimidine-5-carboxylic acid 1-methyl-1-phenyl-ethyl ester] | 47000 nM | > 20000 nM | – |
| COc1ccc(COC(=O)C2=C(C)NC(=S)NC2)cc1OC [Compound 40, 6-methyl-2-thioxo-1,2,3,4-tetrahydro-pyrimidine-5-carboxylic acid 3,4-dimethoxy-benzyl ester] | 92000 nM | > 20000 nM | – |
| CC(C)=CCCC(C)=CCOC(=O)C1=C(C)NC(=S)NC1 [Compound 56, 6-methyl-2-thioxo-1,2,3,4-tetrahydro-pyrimidine-5-carboxylic acid 3,7-dimethyl-octa-2,6-dienyl ester] | < 500 nM | < 1000 nM | – |
| CC(=O)OCC1NC(=S)NC(C)=C1C(=O)OCCCCc1ccsc1 (stereo not drawn) [26″, 4-acetoxymethyl-6-methyl-2-thioxo-1,2,3,4-tetrahydro-pyrimidine-5-carboxylic acid 4-thiophen-3-yl-butyl ester] | 2000 nM | 1000 to 10000 nM | – |
| CC1=C(C(=O)OCC(Br)=CBr)CNC(=S)N1 [Compound 193, 6-methyl-2-thioxo-1,2,3,4-tetrahydro-pyrimidine-5-carboxylic acid 2,3-dibromo-allyl ester] | 1000 nM | < 1000 nM | – |
| COc1ccc(COC(=O)C2=C(C)NC(=S)NC2)cc1 [Compound 8, 6-methyl-2-thioxo-1,2,3,4-tetrahydro-pyrimidine-5-carboxylic acid 4-methoxy-benzyl ester] | 3000 nM | 1000 to 10000 nM | – |
| CC1=C(C(=O)OCCCc2ccsc2)C(CO)NC(=S)N1 (stereo not drawn) [6″, 4-hydroxymethyl-6-methyl-2-thioxo-1,2,3,4-tetrahydro-pyrimidine-5-carboxylic acid 3-thiophen-3-yl-propyl ester] | 1900 nM | 1000 to 10000 nM | – |
| CC1=C(C(=O)OCCCCCCCCCC(=O)O)CNC(=S)N1 [20′, 6-methyl-2-thioxo-1,2,3,4-tetrahydro-pyrimidine-5-carboxylic acid 9-carboxy-nonyl ester] | 27000 nM | > 20000 nM | – |
| CC1=C(C(=O)OC(C)Cc2ccsc2)CNC(=S)N1 (stereo not drawn) [Compound 255, 6-methyl-2-thioxo-1,2,3,4-tetrahydro-pyrimidine-5-carboxylic acid 2-thiophen-3-yl-1-methyl-ethyl ester] | 2000 nM | 1000 to 10000 nM | – |

| Structure (SMILES) | IC50 [1] | IC50 [2] | IC50 (concentration at which 50% of HCV proteins was decreased, Table 2, read-out: IC50) |
| --- | --- | --- | --- |
| CC1=C(C(=O)OCc2ccc(OCc3ccccc3)cc2)CNC(=S)N1 [Compound 49, 6-methyl-2-thioxo-1,2,3,4-tetrahydro-pyrimidine-5-carboxylic acid 4-benzyloxy-benzyl ester] | < 500 nM | < 1000 nM | – |
| CC1=C(C(=O)OCc2cc(F)c(F)c(F)c2)C(CF)NC(=S)N1 (stereo not drawn) [91′, 4-fluoromethyl-6-methyl-2-thioxo-1,2,3,4-tetrahydro-pyrimidine-5-carboxylic acid 3,4,5-trifluoro-benzyl ester] | 1600 nM | 1000 to 10000 nM | – |
| CC1=C(C(=O)OCCCCc2ccsc2)C(CO)NC(=S)N1 (stereo not drawn) [25″, 4-hydroxymethyl-6-methyl-2-thioxo-1,2,3,4-tetrahydro-pyrimidine-5-carboxylic acid 4-thiophen-3-yl-butyl ester] | 2000 nM | 1000 to 10000 nM | – |
| CSCCCOC(=O)C1=C(C)NC(=S)NC1CF (stereo not drawn) [63′, 4-fluoromethyl-6-methyl-2-thioxo-1,2,3,4-tetrahydro-pyrimidine-5-carboxylic acid 3-methylsulfanyl-propyl ester] | > 100000 nM | > 20000 nM | – |
| CC1=C(C(=O)OCCc2scnc2C)CNC(=S)N1 [Compound 24, 6-methyl-2-thioxo-1,2,3,4-tetrahydro-pyrimidine-5-carboxylic acid 2-(4-methyl-thiazol-5-yl)-ethyl ester] | 70000 nM | > 20000 nM | – |
| CC1=C(C(=O)OCCc2ccc(Cl)cc2)C(CO)NC(=S)N1 (stereo not drawn) [35″, 4-hydroxymethyl-6-methyl-2-thioxo-1,2,3,4-tetrahydro-pyrimidine-5-carboxylic acid 2-(4-chloro-phenyl)-ethyl ester] | 1600 nM | 1000 to 10000 nM | – |
| CC1=C(C(=O)OCC2CCC2)CNC(=S)N1 [Compound 80, 6-methyl-2-thioxo-1,2,3,4-tetrahydro-pyrimidine-5-carboxylic acid cyclobutylmethyl ester] | 2300 nM | 1000 to 10000 nM | – |
| COc1ccccc1CCOC(=O)C1=C(C)NC(=S)NC1 [Compound 115, 6-methyl-2-thioxo-1,2,3,4-tetrahydro-pyrimidine-5-carboxylic acid 2-(2-methoxy-phenyl)-ethyl ester] | 700 nM | < 1000 nM | – |
| CC1=C(C(=O)OCCCc2ccsc2)C(CF)NC(=S)N1 (stereo not drawn) [53′, 4-fluoromethyl-6-methyl-2-thioxo-1,2,3,4-tetrahydro-pyrimidine-5-carboxylic acid 3-thiophen-3-yl-propyl ester] | 18000 nM | 10000 to 20000 nM | – |
| CC1=C(C(=O)OCc2ccc(Cl)s2)CNC(=S)N1 [Compound 233, 6-methyl-2-thioxo-1,2,3,4-tetrahydro-pyrimidine-5-carboxylic acid 5-chloro-thiophen-2-ylmethyl ester] | 200 nM | < 1000 nM | – |
| CC1=C(C(=O)OCCc2cc(C)cc(C)c2)CNC(=S)N1 [Compound 175, 6-methyl-2-thioxo-1,2,3,4-tetrahydro-pyrimidine-5-carboxylic acid 2-(3,5-dimethylphenyl)-ethyl ester] | < 400 nM | < 1000 nM | – |
| CC1=C(C(=O)OCCc2ccsc2)C(CO)NC(=S)N1 (stereo not drawn) [3″, 4-hydroxymethyl-6-methyl-2-thioxo-1,2,3,4-tetrahydro-pyrimidine-5-carboxylic acid 2-thiophen-3-yl-ethyl ester] | 9000 nM | 1000 to 10000 nM | – |
| CC1=C(C(=O)OCC2CCCCC2)C(CF)NC(=S)N1 (stereo not drawn) [51′, 4-fluoromethyl-6-methyl-2-thioxo-1,2,3,4-tetrahydro-pyrimidine-5-carboxylic acid cyclohexylmethyl ester] | 5400 nM | 1000 to 10000 nM | – |
| CC1=C(C(=O)OCCCc2cccc(OC(F)(F)F)c2)CNC(=S)N1 [Compound 106, 6-methyl-2-thioxo-1,2,3,4-tetrahydro-pyrimidine-5-carboxylic acid 3-(3-trifluoromethoxy-phenyl)-propyl ester] | < 400 nM | < 1000 nM | – |
| C#CCCOC(=O)C1=C(C)NC(=S)NC1 [Compound 129, 6-methyl-2-thioxo-1,2,3,4-tetrahydro-pyrimidine-5-carboxylic acid but-3-inyl ester] | – | – | > 100000 nM |
| CC1=C(C(=O)OCCc2ccsc2Br)C(CO)NC(=S)N1 (stereo not drawn) [10″, 4-hydroxymethyl-6-methyl-2-thioxo-1,2,3,4-tetrahydro-pyrimidine-5-carboxylic acid 2-(2-bromo-thiophen-3-yl)-ethyl ester] | 7000 nM | 1000 to 10000 nM | – |
| CC1=C(C(=O)OCc2ccccc2[N+](=O)[O-])CNC(=S)N1 [Compound 183, 6-methyl-2-thioxo-1,2,3,4-tetrahydro-pyrimidine-5-carboxylic acid 2-nitro-benzyl ester] | 2500 nM | 1000 to 10000 nM | – |
